Source: patent US3962249A, “1-(3-Phenylpropyl)-4-furoylpiperazine derivatives” (Kyorin Seiyaku Kabushiki Kaisha, priority 1974, dated 1976)

Tests used:
[1] = system: acetic acid-induced writhing; assay: inhibition of acetic acid-induced writhing counts in mice (analgesic effect); type: in vivo; conditions: Mus musculus, read-out: ED50 (50% Effective dose)
[2] = acute toxicity, LD50 in mice by subcutaneous injection (Up and Down method); type: in vivo; conditions: mouse, sc, drugs dissolved in physiological saline
Description: **) LD50 in mice by subcutaneous injection of the drugs (calculated
by the Up and Down method). Drugs are dissolved in physiological saline

SMILES: C[C@@H]1CN(CCCc2ccccc2)[C@@H](C)CN1C(=O)c1ccco1.Cl (relative stereo) [Example 2, trans-1-(3-Phenylpropyl)-2,5-dimethyl-4-(2-furoyl)-piperazine hydrochloride]
- ED50 [1]: 1.52 mg/kg
- LD50 [2]: > 500 mg/kg

SMILES: Cc1ccccc1CCCN1C[C@@H](C)N(C(=O)c2ccco2)C[C@@H]1C.Cl (relative stereo) [Example 15, trans-1-[3-(o-Methylphenyl)propyl]-2,5-dimethyl-4-(2-furoyl)piperazine hydrochloride]
- ED50 [1]: 1 mg/kg
- LD50 [2]: > 750 mg/kg

SMILES: Cc1cccc(CCCN2C[C@@H](C)N(C(=O)c3ccco3)C[C@@H]2C)c1.Cl (relative stereo) [Example 16, trans-1-[3-(m-Methylphenyl)propyl]-2,5-dimethyl-4-(2-furoyl)piperazine hydrochloride]
- ED50 [1]: 1.05 mg/kg
- LD50 [2]: > 500 mg/kg

SMILES: Cl.O=C(c1ccco1)N1CCN(CCCc2ccccc2)CC1 [Example 1, 1-(3-Phenylpropyl)-4-(2-furoyl)piperazine hydrochloride]
- ED50 [1]: 7.8 mg/kg
- LD50 [2]: 400 mg/kg

SMILES: CC1CN(C(=O)c2ccco2)CCN1CCCc1ccccc1 (stereo not drawn) [Example 3, 1-(3-Phenylpropyl)-2-methyl-4-(2-furoyl)piperazine]
- ED50 [1]: 5.17 mg/kg
- LD50 [2]: 300 mg/kg

SMILES: CC1CN(CCCc2ccccc2)CCN1C(=O)c1ccco1.Cl (stereo not drawn) [Example 4, 1-(3-Phenylpropyl)-3-methyl-4-(2-furoyl)piperazine hydrochloride]
- ED50 [1]: 3.42 mg/kg
- LD50 [2]: > 750 mg/kg

SMILES: CC1(C)CN(CCCc2ccccc2)CCN1C(=O)c1ccco1.Cl [Example 5, 1-(3-Phenylpropyl)-3,3-dimethyl-4-(2-furoyl)piperazine hydrochloride]
- ED50 [1]: 2.2 mg/kg
- LD50 [2]: > 500 mg/kg

SMILES: Cc1ccccc1CCCN1CCN(C(=O)c2ccco2)CC1.Cl [Example 7, 1-[3-(o-Methylphenyl)propyl]-4-(2-furoyl)piperazine hydrochloride]
- ED50 [1]: 3 mg/kg
- LD50 [2]: 400 mg/kg

SMILES: Cc1cccc(CCCN2CCN(C(=O)c3ccco3)CC2)c1.Cl [Example 8, 1-[3-(m-Methylphenyl)propyl]-4-(2-furoyl)piperazine hydrochloride]
- ED50 [1]: 3.35 mg/kg
- LD50 [2]: 350 mg/kg

SMILES: CCOc1ccc(CCCN2CCN(C(=O)c3ccco3)CC2)cc1.Cl [Example 9, 1-[3-(p-Ethoxyphenyl)propyl]-4-(2-furoyl)piperazine hydrochloride]
- ED50 [1]: 8.85 mg/kg
- LD50 [2]: 400 mg/kg

SMILES: Cc1occc1C(=O)N1CCN(CCCc2ccccc2)CC1.Cl [Example 11, 1-(3-Phenylpropyl)-4-(2-methyl-3-furoyl)piperazine hydrochloride]
- ED50 [1]: 1.81 mg/kg
- LD50 [2]: 170 mg/kg

SMILES: Cc1cc(C(=O)N2CCN(CCCc3ccccc3)CC2)co1.Cl [Example 12, 1-(3-Phenylpropyl)-4-(5-methyl-3-furoyl)piperazine hydrochloride]
- ED50 [1]: 3.93 mg/kg
- LD50 [2]: 200 mg/kg
